Assay results: ChEMBL document CHEMBL1201862, “PubChem BioAssay data set” (2004)
The source made the active and inactive calls.

Experiments:
[1] = target: T1, Beta-lactamase (Pseudomonas aeruginosa, UniProt Q79MP6)
[2] = target: T2, Beta-lactamase (Salmonella choleraesuis (strain SC-B67), UniProt Q5J463)
[3] = target: Arf-GAP with SH3 domain, ANK repeat and PH domain-containing protein 1 (Homo sapiens, UniProt Q9ULH1); type: functional;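 also: biochemical fluorescence polarization dose–response screen measuring inhibition of ASAP1; ASAP1 GAP domain stimulating GTP hydrolysis by truncated human ARF1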
Chain of Arf-GAP with SH3 domain, ANK repeat and PH domain-containing protein 1 (Q9ULH1 whole entry, the tested form may be a part): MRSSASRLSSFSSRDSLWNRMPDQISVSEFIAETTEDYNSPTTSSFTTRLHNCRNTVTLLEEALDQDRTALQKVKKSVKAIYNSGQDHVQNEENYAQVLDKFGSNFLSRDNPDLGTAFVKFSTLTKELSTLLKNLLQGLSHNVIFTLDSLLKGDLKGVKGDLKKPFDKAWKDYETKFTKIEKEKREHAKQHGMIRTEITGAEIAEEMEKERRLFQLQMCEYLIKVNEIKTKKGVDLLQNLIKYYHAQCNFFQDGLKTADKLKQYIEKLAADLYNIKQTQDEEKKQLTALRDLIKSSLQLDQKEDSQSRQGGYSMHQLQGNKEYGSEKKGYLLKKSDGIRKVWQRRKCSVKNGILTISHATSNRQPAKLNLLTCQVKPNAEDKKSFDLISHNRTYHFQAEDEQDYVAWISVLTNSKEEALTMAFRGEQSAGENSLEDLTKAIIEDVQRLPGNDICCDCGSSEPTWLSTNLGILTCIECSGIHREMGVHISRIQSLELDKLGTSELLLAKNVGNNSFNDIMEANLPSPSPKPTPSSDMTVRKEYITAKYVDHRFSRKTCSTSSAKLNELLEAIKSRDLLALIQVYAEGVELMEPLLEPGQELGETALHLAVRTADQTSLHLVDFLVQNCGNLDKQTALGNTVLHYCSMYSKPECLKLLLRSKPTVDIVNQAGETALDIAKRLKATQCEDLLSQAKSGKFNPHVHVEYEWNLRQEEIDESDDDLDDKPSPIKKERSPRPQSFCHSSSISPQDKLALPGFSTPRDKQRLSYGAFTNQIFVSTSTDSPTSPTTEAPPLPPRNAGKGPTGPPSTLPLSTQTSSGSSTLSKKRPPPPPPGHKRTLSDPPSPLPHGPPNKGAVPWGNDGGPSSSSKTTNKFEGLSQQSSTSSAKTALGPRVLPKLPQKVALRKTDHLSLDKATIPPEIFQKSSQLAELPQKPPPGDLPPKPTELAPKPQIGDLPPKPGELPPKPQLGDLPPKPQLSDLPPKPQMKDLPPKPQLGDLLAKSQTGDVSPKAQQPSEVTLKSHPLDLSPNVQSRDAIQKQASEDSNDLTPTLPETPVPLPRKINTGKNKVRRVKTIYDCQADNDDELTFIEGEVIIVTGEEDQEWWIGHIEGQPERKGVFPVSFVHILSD

[4] = tested on: HeLa; assay: HeLa cell cytotoxicity, dose response, cytotoxicity control, ATP luminescence, cherry-pick samples (AID 687004); type: functional, cell-based; conditions: Homo sapiens
[5] = target: T3, Replicative DNA helicase DnaB (Mycobacterium tuberculosis, UniProt P9WMR3); assay: DnaB intein splicing inhibitors, dose response, biochemical, cell-free fluorescence (AID 449749); type: functional
T3 sequence (P9WMR3 whole entry): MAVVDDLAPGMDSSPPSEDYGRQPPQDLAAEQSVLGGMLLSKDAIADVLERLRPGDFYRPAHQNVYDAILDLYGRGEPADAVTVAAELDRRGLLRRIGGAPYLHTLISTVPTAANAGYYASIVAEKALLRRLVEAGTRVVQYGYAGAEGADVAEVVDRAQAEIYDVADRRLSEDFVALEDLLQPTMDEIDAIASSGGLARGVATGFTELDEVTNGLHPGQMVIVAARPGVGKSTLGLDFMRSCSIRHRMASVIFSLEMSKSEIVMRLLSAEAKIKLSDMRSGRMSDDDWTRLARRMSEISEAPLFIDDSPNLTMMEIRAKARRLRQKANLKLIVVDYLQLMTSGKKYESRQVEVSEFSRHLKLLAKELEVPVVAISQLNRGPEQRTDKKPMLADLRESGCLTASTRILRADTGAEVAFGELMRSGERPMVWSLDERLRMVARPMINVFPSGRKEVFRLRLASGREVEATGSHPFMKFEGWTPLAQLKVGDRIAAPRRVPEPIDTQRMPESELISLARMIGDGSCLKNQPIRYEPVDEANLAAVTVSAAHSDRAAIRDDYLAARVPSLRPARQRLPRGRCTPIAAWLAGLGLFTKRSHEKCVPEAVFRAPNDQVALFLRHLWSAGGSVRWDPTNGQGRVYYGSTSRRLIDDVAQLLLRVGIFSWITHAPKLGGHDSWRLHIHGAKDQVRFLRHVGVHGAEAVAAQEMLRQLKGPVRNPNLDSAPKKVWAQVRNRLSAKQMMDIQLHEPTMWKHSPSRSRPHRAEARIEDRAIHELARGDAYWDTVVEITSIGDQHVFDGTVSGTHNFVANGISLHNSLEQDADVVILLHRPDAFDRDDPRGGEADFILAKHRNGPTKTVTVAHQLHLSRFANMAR

[6] = target: T4, Protein RecA (Mycobacterium tuberculosis, UniProt P9WHJ3); assay: Fluorescence Cell-Free Homogeneous Dose Retest to Identify Inhibitors of RecA-Intein Splicing Activity. [Related pubchem assays (depositor defined):AID2097, AID2223, AID489010, AID492950]; type: functional
T4 sequence (P9WHJ3 whole entry): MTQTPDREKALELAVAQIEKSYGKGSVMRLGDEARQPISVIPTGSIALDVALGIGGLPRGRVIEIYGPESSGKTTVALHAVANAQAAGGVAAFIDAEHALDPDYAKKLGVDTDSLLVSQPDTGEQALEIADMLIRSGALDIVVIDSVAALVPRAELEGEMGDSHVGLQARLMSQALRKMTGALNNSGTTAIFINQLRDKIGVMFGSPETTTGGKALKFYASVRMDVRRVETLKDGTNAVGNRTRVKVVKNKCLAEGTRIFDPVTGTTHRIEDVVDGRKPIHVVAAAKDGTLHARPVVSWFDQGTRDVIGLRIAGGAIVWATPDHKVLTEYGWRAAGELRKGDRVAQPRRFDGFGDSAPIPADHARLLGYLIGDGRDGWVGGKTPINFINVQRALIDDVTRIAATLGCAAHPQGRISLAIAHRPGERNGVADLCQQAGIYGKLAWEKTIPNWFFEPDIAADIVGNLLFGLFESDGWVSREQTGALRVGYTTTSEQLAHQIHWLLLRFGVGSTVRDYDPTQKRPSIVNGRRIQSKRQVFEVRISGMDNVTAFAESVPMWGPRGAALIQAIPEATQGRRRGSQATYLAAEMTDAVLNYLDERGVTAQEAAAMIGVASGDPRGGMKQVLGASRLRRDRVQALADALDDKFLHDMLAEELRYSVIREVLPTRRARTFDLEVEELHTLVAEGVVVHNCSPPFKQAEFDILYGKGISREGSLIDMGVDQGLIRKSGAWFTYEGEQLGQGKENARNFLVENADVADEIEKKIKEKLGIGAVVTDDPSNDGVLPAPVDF

[7] = target: T5, Sentrin-specific protease 8 (Homo sapiens, UniProt Q96LD8); type: functional
T5 sequence (Q96LD8 whole entry): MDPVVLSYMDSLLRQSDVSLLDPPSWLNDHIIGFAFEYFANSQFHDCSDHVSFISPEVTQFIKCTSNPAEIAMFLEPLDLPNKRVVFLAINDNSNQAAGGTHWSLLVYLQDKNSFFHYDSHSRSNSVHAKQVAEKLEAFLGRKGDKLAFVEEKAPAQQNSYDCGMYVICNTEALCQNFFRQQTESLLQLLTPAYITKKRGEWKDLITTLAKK

[8] = target: T5, Sentrin-specific protease 8; type: functional; remark: listed apart in the source
[9] = target: Cytochrome P450 2C19 (Homo sapiens, UniProt P33261); assay: Cytochrome panel assay with activity outcomes. Panel member name: p450-cyp2c19 Compounds with AC50 equal or less than 10 uM are considered active; type: functional; conditions: read-out: AC50
Chain of Cytochrome P450 2C19 (P33261 whole entry): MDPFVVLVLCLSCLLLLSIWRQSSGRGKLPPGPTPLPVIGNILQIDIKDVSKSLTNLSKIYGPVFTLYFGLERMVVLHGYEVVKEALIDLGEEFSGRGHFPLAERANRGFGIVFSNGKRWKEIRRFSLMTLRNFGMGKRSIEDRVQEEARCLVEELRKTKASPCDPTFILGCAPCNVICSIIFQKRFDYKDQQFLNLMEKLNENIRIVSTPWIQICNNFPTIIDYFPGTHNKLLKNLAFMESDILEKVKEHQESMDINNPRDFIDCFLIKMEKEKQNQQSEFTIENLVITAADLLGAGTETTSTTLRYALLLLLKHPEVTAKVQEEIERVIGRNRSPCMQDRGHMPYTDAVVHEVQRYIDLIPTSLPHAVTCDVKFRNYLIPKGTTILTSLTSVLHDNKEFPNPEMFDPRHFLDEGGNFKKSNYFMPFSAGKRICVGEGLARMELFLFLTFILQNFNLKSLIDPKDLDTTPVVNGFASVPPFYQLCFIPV

[10] = target: T6, Beta-2 adrenergic receptor (Homo sapiens, UniProt P07550); assay: beta2AR agonists driving receptor internalization, dose response, cell-based, FAP fluorogen, flow cytometry, cherry pick 1 (AID 588763); type: functional
T6 sequence (P07550 whole entry): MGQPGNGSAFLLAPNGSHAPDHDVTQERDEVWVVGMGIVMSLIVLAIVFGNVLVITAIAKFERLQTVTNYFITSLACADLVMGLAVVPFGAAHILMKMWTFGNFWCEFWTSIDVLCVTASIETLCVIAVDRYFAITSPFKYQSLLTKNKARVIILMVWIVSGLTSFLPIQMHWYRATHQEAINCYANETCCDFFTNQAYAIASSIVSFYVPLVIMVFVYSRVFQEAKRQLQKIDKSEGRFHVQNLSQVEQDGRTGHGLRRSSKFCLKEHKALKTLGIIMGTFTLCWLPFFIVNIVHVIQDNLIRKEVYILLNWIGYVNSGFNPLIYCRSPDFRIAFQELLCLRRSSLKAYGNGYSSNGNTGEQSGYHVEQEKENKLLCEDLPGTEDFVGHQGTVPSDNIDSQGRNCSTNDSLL

[11] = target: T6, Beta-2 adrenergic receptor; assay: Dose response for HTS for Beta-2AR agonists via FAP method from Powderset3.; type: functional
[12] = target: Cytochrome P450 3A4 (Homo sapiens, UniProt P08684);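 also: CYP3A4 tested as one member of a cytochrome P450 panel screen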
Chain of Cytochrome P450 3A4 (P08684 whole entry): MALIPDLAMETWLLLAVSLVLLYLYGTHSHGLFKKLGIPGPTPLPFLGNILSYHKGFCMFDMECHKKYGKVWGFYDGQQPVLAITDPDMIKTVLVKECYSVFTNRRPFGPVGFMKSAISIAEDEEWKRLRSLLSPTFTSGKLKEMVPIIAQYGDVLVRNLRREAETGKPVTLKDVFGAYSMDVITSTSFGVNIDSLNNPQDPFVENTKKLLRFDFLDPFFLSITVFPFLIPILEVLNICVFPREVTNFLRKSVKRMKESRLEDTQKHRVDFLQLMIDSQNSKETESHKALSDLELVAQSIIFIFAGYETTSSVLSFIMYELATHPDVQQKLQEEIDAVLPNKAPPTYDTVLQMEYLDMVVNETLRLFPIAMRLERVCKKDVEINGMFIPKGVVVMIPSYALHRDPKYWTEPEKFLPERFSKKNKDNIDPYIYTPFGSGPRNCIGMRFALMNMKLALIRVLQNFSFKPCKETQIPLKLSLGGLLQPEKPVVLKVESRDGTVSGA

[13] = NIH/3T3 fibroblast cytotoxicity, dose response, cytotoxicity control for T. cruzi growth inhibitor project, cell-based, cherry-pick samples, set 2 (AID 651817); type: functional; conditions: NIH3T3
[14] = intracellular Trypanosoma cruzi inhibitors in host cells – cell-based, plate reader, cherry-pick samples, set 3, dose response (AID 651818); type: functional;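 also: compounds incubated with infected cells for about four days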
[15] = lymphoblastoid cell cytotoxicity, dose response, cytotoxicity control, plate reader, dry powder, set 2 (AID 624367); type: functional
[16] = P. falciparum 3D7-ScDHODH growth inhibitors, dose response, SYBR Green, dry powder samples (AID 1159570); type: functional, cell-based;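 also: parasite growth measured after 72 hours of compound exposure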
[17] = HepG2 cell cytotoxicity, dose response, cytotoxicity control, plate reader, dry powder samples (AID 1159569); type: functional, cell-based;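 also: inhibitor potency with signal falling toward the positive control level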
[18] = P. falciparum Dd2 growth inhibitors, dose response, SYBR Green, cherry-picked samples (AID 1159567); type: functional, cell-based
[19] = P. falciparum Dd2 growth inhibitors, dose response, SYBR Green, dry powder samples (AID 1159566); type: functional, cell-based;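 also: potency for growth inhibition with lower SYBR green DNA signal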
[20] = HepG2 cell cytotoxicity, dose response, cytotoxicity control, cherry-picked samples (AID 1159577); type: functional, cell-based
[21] = P. falciparum ATP4 D1247Y mutant growth inhibitors, dose response, NITD609-resistant line, SYBR Green, dry powder (AID 1159571); type: functional, cell-based;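 also: parasites synchronized at ring stage by sorbitol before testing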
[22] = target: Scavenger receptor class B member 1 (Mus musculus, UniProt Q61009); assay: inhibitors of SR-BI dependent HDL uptake, dose response, ldlA[mSR-BI] CHO cells, fluorescence plate reader, dry powder, set 9 (AID 623880); type: functional, cell-based
Chain of Scavenger receptor class B member 1 (Q61009 whole entry): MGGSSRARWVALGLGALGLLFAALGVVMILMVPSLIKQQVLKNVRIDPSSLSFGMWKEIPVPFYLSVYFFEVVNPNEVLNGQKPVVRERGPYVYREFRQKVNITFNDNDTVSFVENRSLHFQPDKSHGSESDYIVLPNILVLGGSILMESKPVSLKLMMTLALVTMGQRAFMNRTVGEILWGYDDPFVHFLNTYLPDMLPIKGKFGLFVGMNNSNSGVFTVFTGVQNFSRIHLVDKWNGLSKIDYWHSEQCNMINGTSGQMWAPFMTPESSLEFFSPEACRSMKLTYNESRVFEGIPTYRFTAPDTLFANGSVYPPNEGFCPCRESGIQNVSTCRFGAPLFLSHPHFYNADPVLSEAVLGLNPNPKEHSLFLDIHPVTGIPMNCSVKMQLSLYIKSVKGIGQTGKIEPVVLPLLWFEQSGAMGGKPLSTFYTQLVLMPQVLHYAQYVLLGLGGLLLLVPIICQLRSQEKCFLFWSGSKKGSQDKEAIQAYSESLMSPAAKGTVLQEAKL

[23] = cytotoxicity in ldlA[mSR-BI] CHO cells, dose response, cytotoxicity control for SR-BI HDL uptake inhibitor project, cell-based, CellTiter-Glo, 24 h, powder samples, set 7 (AID 624026); type: functional
[24] = Cryptococcus neoformans growth inhibition, dose response, Alamar Blue, cherry-picks (AID 686998); type: functional, organism-based
[25] = cytotoxicity in HEK-293T cells, dose response, cytotoxicity control for TCR NF-kB inhibitor project, luminescence, T-cell screen hits (AID 489026); type: functional, cell-based;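 also: cells exposed to compound about 14 hours before the viability readout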
[26] = tested on: Vero; assay: Vero cell toxicity, dose response, cytotoxicity control, plate reader, cherry-pick samples (AID 687020); type: functional, cell-based; conditions: Chlorocebus sabaeus
[27] = tested on: A549; assay: A549 cell toxicity, dose response, cytotoxicity control, plate reader, cherry-pick samples (AID 687028); type: functional, cell-based; conditions: Homo sapiens
[28] = luciferase signal loss, tTA control fusion, HeLa F-luc tTA cells, dry powder, counter-screen for HIV Env fusion inhibitor project, dose response (AID 687021); type: functional, cell-based
[29] = A Cell-Based Confirmatory Screen for Compounds that Inhibit VEEV, TC-83 (8).; type: functional
[30] = cytotoxicity in HeLa cells, dose response, cytotoxicity control, cell-based, 24 h, dry powder, set 2 (AID 651774); type: functional
[31] = target: T2, Beta-lactamase; assay: Epi-absorbance-based counterscreen for selective VIM-2 inhibitors: dose response biochemical high throughput screening assay to identify inhibitors of TEM-1 serine-beta-lactamase.
[32] = target: T1, Beta-lactamase; assay: IMP-1 metallo-beta-lactamase inhibitors, dose response, selectivity assay for VIM-2 inhibitor project, biochemical, epi-absorbance (AID 1920)
[33] = target: T7, Beta Lactamase (Pseudomonas aeruginosa, UniProt Q932Y6); assay: VIM-2 metallo-beta-lactamase inhibitor potency, dose response, biochemical, epi-absorbance readout, selective inhibitors (AID 1919)
T7 sequence (Q932Y6 whole entry): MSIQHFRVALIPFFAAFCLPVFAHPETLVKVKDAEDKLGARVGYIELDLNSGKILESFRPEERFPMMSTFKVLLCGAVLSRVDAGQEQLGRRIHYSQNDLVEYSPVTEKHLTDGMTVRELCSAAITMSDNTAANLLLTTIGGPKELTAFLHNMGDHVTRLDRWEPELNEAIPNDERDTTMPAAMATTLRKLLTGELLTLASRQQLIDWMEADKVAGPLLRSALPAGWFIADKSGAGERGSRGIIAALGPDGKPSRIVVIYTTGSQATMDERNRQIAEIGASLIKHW

[34] = target: T1, Beta-lactamase; assay: […] counterscreen for selective VIM-2 inhibitors: dose response biochemical high throughput screening assay to identify inhibitors of IMP-1 metallo-beta-lactamase.
[35] = target: T7, Beta Lactamase; assay: VIM-2 inhibitor FRET-based artefact check, dose response, artefact control for selective VIM-2 inhibitor project, biochemical, FRET readout, CCF2 substrate (AID 1926)
[36] = target: FAD-linked sulfhydryl oxidase ALR (Homo sapiens, UniProt P55789); assay: inhibitors of human ALR sulfhydryl oxidase, dose response, biochemical, H2O2 detection, luminescence, cherry-pick (AID 493248)
Chain of FAD-linked sulfhydryl oxidase ALR (P55789 whole entry): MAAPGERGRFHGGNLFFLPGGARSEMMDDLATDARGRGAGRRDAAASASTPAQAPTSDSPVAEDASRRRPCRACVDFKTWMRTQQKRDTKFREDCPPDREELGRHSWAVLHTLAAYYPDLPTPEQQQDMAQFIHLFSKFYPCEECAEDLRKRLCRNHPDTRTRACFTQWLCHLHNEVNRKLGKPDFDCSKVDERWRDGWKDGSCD

T1 sequence (Q79MP6 whole entry): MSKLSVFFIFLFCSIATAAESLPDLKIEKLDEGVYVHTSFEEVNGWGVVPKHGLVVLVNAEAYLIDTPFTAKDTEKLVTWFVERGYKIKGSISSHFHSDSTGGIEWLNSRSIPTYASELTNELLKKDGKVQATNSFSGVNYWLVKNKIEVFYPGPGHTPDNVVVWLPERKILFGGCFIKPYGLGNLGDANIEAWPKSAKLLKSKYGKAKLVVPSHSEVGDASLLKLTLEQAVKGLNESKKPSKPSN
T2 sequence (Q5J463 whole entry, the tested form may be a part): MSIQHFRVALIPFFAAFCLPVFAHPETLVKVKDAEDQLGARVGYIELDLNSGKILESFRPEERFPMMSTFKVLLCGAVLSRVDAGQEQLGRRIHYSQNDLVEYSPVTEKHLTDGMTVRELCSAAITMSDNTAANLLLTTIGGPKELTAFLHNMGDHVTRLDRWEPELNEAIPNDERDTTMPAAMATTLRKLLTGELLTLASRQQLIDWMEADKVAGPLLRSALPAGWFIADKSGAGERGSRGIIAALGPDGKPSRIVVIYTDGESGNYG

COC(=O)c1sccc1NC(=O)c1ccc(C#N)cc1
IC50 [1]: > 59.6 µM (inactive)
IC50 [2]: > 59.6 µM (inactive)

O=C(COC(=O)c1ccc2c(c1)C(=O)N(c1cccc3ncccc13)C2=O)c1ccc(Cl)cc1
IC50 [3]: 1.97 µM (active)

O=C1CCC(C(=O)Nc2cccc(C(F)(F)F)c2)N1 (stereo unspecified)
AC50 [4]: > 52 µM (inactive)

CC1=NN(c2cccc(Cl)c2)C(=O)C1
AC50 [5]: 75.7 µM (active)
EC50 [6]: 54.5 µM (active)
IC50 [7]: 8.2 µM (active)
IC50 [8]: 13.4 µM (active)

Cc1ccc(Cn2ccc(NC(=O)c3cc4nc(-c5ccco5)cc(C(F)(F)F)n4n3)n2)cc1
AC50 [9]: 14.1 µM (inconclusive)
EC50 [10]: 0.22 µM (active)
EC50 [11]: 0.00643 µM (active)
AC50 [12]: 2.82 µM (inconclusive)

C[C@@H]1CN([C@H](C)CO)C(=O)c2cccc(NC(=O)Nc3ccc(C(F)(F)F)cc3)c2O[C@H]1CN(C)Cc1ccc(Cl)c(Cl)c1
AC50 [13]: 15.7 µM (active)
AC50 [14]: 1.28 µM (active)

N#C[C@H]1[C@H](c2ccc(C#Cc3ccccc3F)cc2)[C@H](CO)N1C(=O)c1cccnc1
AbsAC35 [15]: 50.14 µM
AC50 [16]: 1.83 µM (active)
AC50 [17]: > 100 µM (inactive)
AC50 [18]: 1.58 µM (active)
AC50 [19]: 1.59 µM (active)
AC50 [20]: > 39 µM (inactive)
AC50 [21]: 1.54 µM (active)

C[C@@H]1CN([C@H](C)CO)C(=O)c2cc(NC(=O)Nc3ccc(F)cc3)ccc2O[C@H]1CN(C)S(=O)(=O)c1ccc(Cl)cc1
AC50 [22]: 0.113 µM (active)
AC50 [23]: > 70 µM (inactive)

CCC(=O)N1CCCC1(C)C(=O)Nc1ccc(C)c(C)c1 (stereo unspecified)
AC50 [24]: 93.7 µM (active)

COc1ccc(OC)c(-c2nnc3n2N=C(c2ccc(OC)c(OC)c2)CS3)c1
IC50 [25]: > 80 µM (inactive)
AC50 [26]: 23.2 µM (active)
AC50 [27]: 4.83 µM (active)

CC1(C)CC(NC(=O)C(=O)Nc2ccc(Cl)cc2)CC(C)(C)N1
AC50 [28]: > 70 µM (inactive)

O=c1c2cc([N+](=O)[O-])ccc2nc(C2CCNCC2)n1-c1ccccc1
IC50 [29]: 3.88 µM (active)

CNC(=O)Cc1ccc(-c2ccccc2)cc1
AC50 [30]: > 70 µM (inactive)

O=[N+]([O-])c1ccccc1/C=C/C=N/n1c(S)nnc1-c1ccccc1F
IC50 [31]: > 59.6 µM (inactive)
IC50 [32]: > 59.6 µM (inactive)
IC50 [33]: > 59.6 µM (inactive)
IC50 [34]: > 59.6 µM (inactive)
IC50 [35]: > 6.63 µM (active)
AC50 [36]: 1.89 µM (active)
